Measured values from ChEMBL document CHEMBL1151649, “Modified smear method for screening potential inhibitors of platelet aggregation from plant sources” (1985).

Experiments:
Assay type in all cases: functional
[1] = Antiplatelet activity in Sprague-Dawley rat platelet-rich plasma assessed as minimum drug level causing inhibition of arachidonic acid-induced platelet aggregation administered 2 mins before arachidonic acid challenge by modified smear method
[2] = Antiplatelet activity in Sprague-Dawley rat platelet-rich plasma assessed as minimum drug level causing inhibition of ADP-induced platelet aggregation administered 2 mins before ADP challenge by modified smear method
[3] = Antiplatelet activity in Sprague-Dawley rat platelet-rich plasma assessed as minimum drug level causing inhibition of collagen-induced platelet aggregation administered 2 mins before collagen challenge by modified smear method

## COc1ccc(Cc2nccc3cc(OC)c(OC)cc23)cc1OC [PAPAVERINE]
[1]
  Activity: 10 µg/mL
[2]
  Activity: 100 µg/mL
[3]
  Activity: 25 µg/mL

## CC(=O)Oc1ccccc1C(=O)O [ASPIRIN]
[1]
  Activity: 50 µg/mL
[2]
  Activity: 1000 µg/mL
[3]
  Activity: 250 µg/mL
